Laboratory results from the supplement of paper PMC10307832.

What was measured:
Assay in all cases: relative viability (nuclei count vs DMSO), 5 days (fraction); higher = more cells survive
PC-14 = tested on: PC-14
Method in brief: (§1)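 Lung cancer cell lines in 1536-well plates were dosed by pin tool the day after seeding, either with one drug alone or with a fixed anchor-drug dose plus five library-drug doses (not always all listed) in √10 steps. After 5 days, cells were fixed and their nuclei stained in one step (final 0.05% Triton X-100, 1% formaldehyde, 1 ug/ml Hoechst), then counted on 4× images. Relative viability is the nuclei count in treated wells divided by that in vehicle wells. Values are medians of duplicate plates.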

NCI-H596 = tested on: NCI-H596
Method in brief: as §1

LCLC-97TM1 = tested on: LCLC-97TM1
Method in brief: as §1

NCI-H441 = tested on: NCI-H441
Method in brief: as §1

NCI-H2126 = tested on: NCI-H2126
Method in brief: as §1

NCI-H2009 = tested on: NCI-H2009
Method in brief: as §1

NCI-H460 = tested on: NCI-H460
Method in brief: as §1

COR-L23 = tested on: COR-L23
Method in brief: as §1

HCC-78 = tested on: HCC-78
Method in brief: as §1

SW 900 = tested on: SW 900
Method in brief: as §1

NCI-H647 = tested on: NCI-H647
Method in brief: as §1

LCLC-103H = tested on: LCLC-103H
Method in brief: as §1

HCC-366 = tested on: HCC-366
Method in brief: as §1

ChaGo-K-1 = tested on: ChaGo-K-1
Method in brief: as §1

NCI-H1734 = tested on: NCI-H1734
Method in brief: as §1

LOU-NH91 = tested on: LOU-NH91
Method in brief: as §1

HARA = tested on: HARA
Method in brief: as §1

NCI-H650 = tested on: NCI-H650
Method in brief: as §1

NCI-H1355 = tested on: NCI-H1355
Method in brief: as §1

201T = tested on: 201T
Method in brief: as §1

NCI-H1792 = tested on: NCI-H1792
Method in brief: as §1

HCC-15 = tested on: HCC-15
Method in brief: as §1

Compound: COCC1(CO)C(=O)C2CCN1CC2 (configuration not stated) [PRIMA-1MET] + CC(=O)Nc1cccc(-n2c(=O)n(C3CC3)c(=O)c3c(Nc4ccc(I)cc4F)n(C)c(=O)c(C)c32)c1 [Trametinib] (partner 0.02 µM)
- relative viability (PC-14; first compound 0.2 µM): 0.921
- relative viability (PC-14; first compound 0.6325 µM): 0.618
- relative viability (PC-14; first compound 2 µM): 0.97
- relative viability (PC-14; first compound 6.325 µM): 0.693
- relative viability (PC-14; first compound 20 µM): 0.615
- relative viability (NCI-H596; first compound 0.2 µM): 0.888
- relative viability (NCI-H596; first compound 0.6325 µM): 0.718
- relative viability (NCI-H596; first compound 2 µM): 0.66
- relative viability (NCI-H596; first compound 6.325 µM): 0.837
- relative viability (NCI-H596; first compound 20 µM): 0.119
- relative viability (LCLC-97TM1; first compound 0.2 µM): 0.133
- relative viability (LCLC-97TM1; first compound 0.6325 µM): 0.163
- relative viability (LCLC-97TM1; first compound 2 µM): 0.179
- relative viability (LCLC-97TM1; first compound 6.325 µM): 0.151
- relative viability (LCLC-97TM1; first compound 20 µM): 0.197
- relative viability (NCI-H441; first compound 0.2 µM): 0.418
- relative viability (NCI-H441; first compound 0.6325 µM): 0.297
- relative viability (NCI-H441; first compound 2 µM): 0.369
- relative viability (NCI-H441; first compound 6.325 µM): 0.399
- relative viability (NCI-H441; first compound 20 µM): 0.267
- relative viability (NCI-H2126; first compound 0.2 µM): 0.604
- relative viability (NCI-H2126; first compound 0.6325 µM): 0.47
- relative viability (NCI-H2126; first compound 2 µM): 0.597
- relative viability (NCI-H2126; first compound 6.325 µM): 0.577
- relative viability (NCI-H2126; first compound 20 µM): 0.543
- relative viability (NCI-H2009; first compound 0.2 µM): 0.246
- relative viability (NCI-H2009; first compound 0.6325 µM): 0.306
- relative viability (NCI-H2009; first compound 2 µM): 0.237
- relative viability (NCI-H2009; first compound 6.325 µM): 0.252
- relative viability (NCI-H2009; first compound 20 µM): 0.0028
- relative viability (NCI-H460; first compound 0.2 µM): 0.0362
- relative viability (NCI-H460; first compound 0.6325 µM): 0.0885
- relative viability (NCI-H460; first compound 2 µM): 0.0744
- relative viability (NCI-H460; first compound 6.325 µM): 0.136
- relative viability (NCI-H460; first compound 20 µM): 0.0091
- relative viability (COR-L23; first compound 0.2 µM): 0.247
- relative viability (COR-L23; first compound 0.6325 µM): 0.532
- relative viability (COR-L23; first compound 2 µM): 0.495
- relative viability (COR-L23; first compound 6.325 µM): 0.357
- relative viability (COR-L23; first compound 20 µM): 0.0237
- relative viability (HCC-78; first compound 0.2 µM): 0.676
- relative viability (HCC-78; first compound 0.6325 µM): 0.708
- relative viability (HCC-78; first compound 2 µM): 0.478
- relative viability (HCC-78; first compound 6.325 µM): 0.596
- relative viability (HCC-78; first compound 20 µM): 0.331
- relative viability (SW 900; first compound 0.2 µM): 0.615
- relative viability (SW 900; first compound 0.6325 µM): 0.765
- relative viability (SW 900; first compound 6.325 µM): 0.676
- relative viability (SW 900; first compound 20 µM): 0.131
- relative viability (NCI-H647; first compound 0.2 µM): 0.306
- relative viability (NCI-H647; first compound 0.6325 µM): 0.537
- relative viability (NCI-H647; first compound 2 µM): 0.279
- relative viability (NCI-H647; first compound 6.325 µM): 0.456
- relative viability (NCI-H647; first compound 20 µM): 0.413
- relative viability (LCLC-103H; first compound 0.2 µM): 0.675
- relative viability (LCLC-103H; first compound 0.6325 µM): 0.619
- relative viability (LCLC-103H; first compound 2 µM): 0.604
- relative viability (LCLC-103H; first compound 6.325 µM): 0.655
- relative viability (LCLC-103H; first compound 20 µM): 0.709
- relative viability (HCC-366; first compound 0.2 µM): 0.288
- relative viability (HCC-366; first compound 0.6325 µM): 0.289
- relative viability (HCC-366; first compound 2 µM): 0.263
- relative viability (HCC-366; first compound 6.325 µM): 0.431
- relative viability (HCC-366; first compound 20 µM): 0.0205
- relative viability (ChaGo-K-1; first compound 0.2 µM): 0.996
- relative viability (ChaGo-K-1; first compound 0.6325 µM): 0.735
- relative viability (ChaGo-K-1; first compound 2 µM): 0.849
- relative viability (ChaGo-K-1; first compound 6.325 µM): 0.891
- relative viability (ChaGo-K-1; first compound 20 µM): 0.857
- relative viability (NCI-H1734; first compound 0.2 µM): 0.564
- relative viability (NCI-H1734; first compound 0.6325 µM): 0.622
- relative viability (NCI-H1734; first compound 2 µM): 0.584
- relative viability (NCI-H1734; first compound 6.325 µM): 0.581
- relative viability (NCI-H1734; first compound 20 µM): 0.0425
- relative viability (LOU-NH91; first compound 0.2 µM): 0.842
- relative viability (LOU-NH91; first compound 0.6325 µM): 0.801
- relative viability (LOU-NH91; first compound 2 µM): 0.793
- relative viability (LOU-NH91; first compound 6.325 µM): 0.831
- relative viability (LOU-NH91; first compound 20 µM): 0.535
- relative viability (HARA; first compound 0.2 µM): 0.403
- relative viability (HARA; first compound 0.6325 µM): 0.754
- relative viability (HARA; first compound 2 µM): 0.647
- relative viability (HARA; first compound 6.325 µM): 0.529
- relative viability (HARA; first compound 20 µM): 0.736
- relative viability (NCI-H650; first compound 0.2 µM): 0.58
- relative viability (NCI-H650; first compound 0.6325 µM): 0.965
- relative viability (NCI-H650; first compound 2 µM): 0.762
- relative viability (NCI-H650; first compound 6.325 µM): 0.833
- relative viability (NCI-H650; first compound 20 µM): 0.0675
- relative viability (NCI-H1355; first compound 0.2 µM): 0.393
- relative viability (NCI-H1355; first compound 0.6325 µM): 0.462
- relative viability (NCI-H1355; first compound 2 µM): 0.444
- relative viability (NCI-H1355; first compound 6.325 µM): 0.427
- relative viability (NCI-H1355; first compound 20 µM): 0.428
- relative viability (201T; first compound 0.2 µM): 0.757
- relative viability (201T; first compound 0.6325 µM): 0.74
- relative viability (201T; first compound 2 µM): 0.684
- relative viability (201T; first compound 6.325 µM): 0.749
- relative viability (201T; first compound 20 µM): 0.721
- relative viability (NCI-H1792; first compound 0.2 µM): 0.413
- relative viability (NCI-H1792; first compound 6.325 µM): 0.434
- relative viability (NCI-H1792; first compound 20 µM): 0.54
- relative viability (HCC-15; first compound 0.2 µM): 0.37
- relative viability (HCC-15; first compound 0.6325 µM): 0.346
- relative viability (HCC-15; first compound 2 µM): 0.37
- relative viability (HCC-15; first compound 6.325 µM): 0.328
- relative viability (HCC-15; first compound 20 µM): 0.31
